{"source": "patent US9675697B2", "about": "(THE REGENTS OF THE UNIVERSITY OF MICHIGAN, priority 2013, dated 2017)", "key": {"BRD2 BD1": {"biological_target": "BRD2 BD1 (Homo sapiens (Human), UniProt P25440)", "sequence (P25440 74-180)": "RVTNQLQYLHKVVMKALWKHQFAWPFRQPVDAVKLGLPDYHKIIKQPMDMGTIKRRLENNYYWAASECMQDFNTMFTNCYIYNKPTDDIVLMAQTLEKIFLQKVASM", "test": "FP competitive binding assay using Cpd. No. 350 as the probe", "conditions": "read-out: BRD2 BD1 Ki; FP, Cpd. No. 350 probe […]", "description": "(§3) Fluorescence Polarization (FP) competitive binding studies (see above) were carried out using the FAM labeled fluorescent probe Cpd. No. 350 to determine binding affinities of representative compounds to both BD1 and BD2 of BRD2, BRD3, and BRD4 proteins. Equilibrium dissociation constants (Id) values of Cpd. No. 350 to these six proteins were determined from protein saturation experiments by monitoring the total fluorescence polarization of mixtures composed with the fluorescent probe at a fixed concentration and proteins with increasing concentrations up to full saturation. Serial dilutions of testing protein were mixed with Cpd. No. 350 to a final volume of 200 μl in the assay buffer. […] Plates were incubated at room temperature for 30 minutes with gentle shaking to assure equilibrium. […] Kd values of Cpd.\n(§4) The IC50 and Ki values of compounds were determined in a competitive binding experiment as described above. […] FP values were measured as described above. IC50 values were determined by nonlinear regression fitting of the competition curves."}, "BRD3 BD1": {"biological_target": "BRD3 BD1 (Homo sapiens (Human), UniProt Q15059)", "sequence (Q15059 34-140)": "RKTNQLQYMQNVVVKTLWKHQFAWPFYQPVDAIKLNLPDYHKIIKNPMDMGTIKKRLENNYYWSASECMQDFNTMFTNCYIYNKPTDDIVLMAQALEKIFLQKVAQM", "test": "FP competitive binding assay using Cpd. No. 350 as the probe", "conditions": "read-out: BRD3 BD1 Ki; FP, Cpd. No. 350 probe […]", "description": "as §3, §4"}, "prostate VCaP cell line": {"test_system": "prostate VCaP cell line", "test": "Cell growth inhibition, Cell TiterGLO, 4 days", "assay_type": "cell-based", "conditions": "Homo sapiens, VCaP, 96 h, treated 4 days, read-out: VCaP cells (IC50 (nM))"}, "BRD2 BD2": {"biological_target": "BRD2 BD2 (Homo sapiens (Human), UniProt P25440)", "sequence (P25440 344-453)": "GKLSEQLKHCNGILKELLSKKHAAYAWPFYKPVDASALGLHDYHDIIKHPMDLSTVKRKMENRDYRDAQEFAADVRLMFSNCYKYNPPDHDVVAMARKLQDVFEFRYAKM", "test": "FP competitive binding assay using Cpd. No. 350 as the probe", "conditions": "read-out: BRD2 BD2 Ki; FP, Cpd. No. 350 probe […]", "description": "as §3, §4"}, "BT-474": {"test_system": "BT-474", "test": "Cell growth inhibition, WST-8, breast cancer cell line", "assay_type": "cell-based", "conditions": "Homo sapiens, BT-474, 96 h, 4 days", "experimental": "(§1) For breast cancer cell lines, cells were seeded in 96-well cell culture plates at a density of 5,000-10,000 cells/well with serially diluted compounds and incubated at 37° C. in an atmosphere of 95% air and 5% CO2 for 4 days. All the breast cancer cell lines were obtained from the ATCC. Cell viability was determined using the WST-8 (2-(2-methoxy-4-nitrophenyl)-3-(4-nitrophenyl)-5-(2,4-disulfophenyl)-2H-tetrazolium, monosodium salt) based Cell Counting-8 Kit (Dojindo Molecular Technologies, Inc., Rockville, Md.) according to the manufacture's instruction. Briefly, WST-8 was added to each well at a final concentration of 10% (v/v), and then the plates were incubated at 37° C. for 1-2 hours for color development. The absorbance was measured at 450 nm using a SPECTRAmax PLUS plate reader (Molecular Devices, Sunnyvale, Calif.). The IC50 was calculated using the GraphPad Prism 5 software."}, "MDA-MB-157": {"test_system": "MDA-MB-157", "test": "Cell growth inhibition, WST-8, breast cancer cell line", "assay_type": "cell-based", "conditions": "Homo sapiens, MDA-MB-157, 96 h, 4 days", "experimental": "as §1"}, "MDA-MB-436": {"test_system": "MDA-MB-436", "test": "Cell growth inhibition, WST-8, breast cancer cell line", "assay_type": "cell-based", "conditions": "Homo sapiens, MDA-MB-436, 96 h, 4 days", "experimental": "as §1"}, "SK-BR-3": {"test_system": "SK-BR-3", "test": "Cell growth inhibition, WST-8, breast cancer cell line", "assay_type": "cell-based", "conditions": "Homo sapiens, SK-BR-3, 96 h, 4 days", "experimental": "as §1"}, "MDA-MB-231": {"test_system": "MDA-MB-231", "test": "Cell growth inhibition, WST-8, breast cancer cell line", "assay_type": "cell-based", "conditions": "Homo sapiens, MDA-MB-231, 96 h, 4 days", "experimental": "as §1"}, "BRD3 BD2": {"biological_target": "BRD3 BD2 (Homo sapiens (Human), UniProt Q15059)", "sequence (Q15059 306-415)": "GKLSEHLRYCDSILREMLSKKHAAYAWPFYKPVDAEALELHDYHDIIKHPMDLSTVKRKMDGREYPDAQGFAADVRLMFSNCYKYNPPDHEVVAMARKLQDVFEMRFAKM", "test": "FP competitive binding assay using Cpd. No. 350 as the probe", "conditions": "read-out: BRD3 BD2 Ki; FP, Cpd. No. 350 probe […]", "description": "as §3, §4"}, "BRD4 BD2": {"biological_target": "BRD4 BD2 (Homo sapiens (Human), UniProt O60885)", "test": "FP competitive binding assay using Cpd. No. 350 as the probe", "conditions": "read-out: BRD4 BD2 Ki; FP, Cpd. No. 350 probe […]"}, "BRD4 BD1": {"biological_target": "BRD4 BD1 (Homo sapiens (Human), UniProt O60885)", "test": "FP competitive binding assay using Cpd. No. 350 as the probe", "conditions": "read-out: BRD4 BD1 Ki; FP, Cpd. No. 350 probe […]", "description": "as §3, §4"}, "MOLM-13": {"test_system": "MOLM-13", "test": "Cell growth inhibition, CellTiter-Glo, acute leukemia cell line", "assay_type": "cell-based", "conditions": "Homo sapiens, MOLM-13, 96 h, 4 days", "experimental": "(§2) Cell growth inhibitory activity of representative BET bromodomain inhibitors was determined using CellTiter-Glo® Luminescent Cell Viability Assay. For leukemia cell lines MV-4-11 (ATCC, Manassas, Va.) and MOLM-13 (DSMZ, Germany), cells were seeded in 96-well white opaque cell culture plates at a density of 10,000 cells/well with serially diluted compounds and incubated at 37° C. in an atmosphere of 95% air and 5% CO2 for 4 days. Cell viability was determined using the CellTiter-Glo® Luminescent Cell Viability Assay Kit (Promega, Madison, Wis.) according to the manufacture's instruction. Briefly, a volume of CellTiter-Glo® Reagent equal to the volume of cell culture medium was added to each well, and then the plates were incubated at room temperature for 10-20 minutes. The luminescent signal was measured using a Tecan Infinite M1000 multimode microplate reader (Tecan, Morrisville, N.C.). The half maximal inhibitory concentration (IC50) was calculated using the GraphPad Prism 5 software (GraphPad Software, La Jolla, Calif.)."}, "MV-4-11": {"test_system": "MV-4-11", "test": "Cell growth inhibition, CellTiter-Glo, acute leukemia cell line", "assay_type": "cell-based", "conditions": "Homo sapiens, MV4-11, 96 h, 4 days", "experimental": "as §2"}}, "data": [{"smiles": "COc1cc2c(cc1-c1c(C)noc1C)[nH]c1nc(C)nc(-c3c(C)[nH]c4ccccc34)c12", "note": "[Cpd. No. 68]", "values": [{"measurement": "Ki", "setting": "BRD2 BD1", "result": 3.2, "unit": "nM"}, {"measurement": "Ki", "setting": "BRD3 BD1", "result": 5.1, "unit": "nM"}, {"measurement": "IC50", "setting": "prostate VCaP cell line", "result": 148, "unit": "nM"}, {"measurement": "Ki", "setting": "BRD2 BD2", "result": 2.7, "unit": "nM"}, {"measurement": "IC50", "setting": "BT-474", "result": "< 300", "unit": "nM"}, {"measurement": "IC50", "setting": "MDA-MB-157", "result": "< 300", "unit": "nM"}, {"measurement": "IC50", "setting": "MDA-MB-436", "result": "< 300", "unit": "nM"}, {"measurement": "IC50", "setting": "SK-BR-3", "result": "< 300", "unit": "nM"}, {"measurement": "IC50", "setting": "MDA-MB-231", "result": "< 300", "unit": "nM"}, {"measurement": "Ki", "setting": "BRD3 BD2", "result": 0.65, "unit": "nM"}, {"measurement": "Ki", "setting": "BRD4 BD2", "result": 1.7, "unit": "nM"}, {"measurement": "Ki", "setting": "BRD4 BD1", "result": 7.3, "unit": "nM"}, {"measurement": "IC50", "setting": "MOLM-13", "result": "< 100", "unit": "nM"}, {"measurement": "IC50", "setting": "MV-4-11", "result": "< 100", "unit": "nM"}]}]}
